Experimental data taken from PubChem BioAssay AID1963983 (Molecular Pharmacology Branch, DTP, NCI, 2024).
pIC50: −log10 of the molar value.

System: 186277-243-T-J2-PDC multi-cell spheroid viability
Test: Anticancer human tumor 186277-243-T-J2-PDC patient-derived colon adenocarcinoma cell line growth inhibition [PI3K]
Details: for pIC50: curve of first compound; for viability, T/C: stronger effect = lower value
Outline: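 Complex 3D spheroids (cancer cells + endothelial HUVEC + mesenchymal stem cells); drug pairs of targeted agent x inavolisib/alpelisib/duvelisib/copanlisib; half-log series from ~Cmax, max 10 microM if Cmax unknown; endpoint viability.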

[1] = second compound 0.0316 µM, first compound 0.0316 µM
[2] = second compound 0.0316 µM, first compound 0.1 µM
[3] = second compound 0.1 µM, first compound 0.0316 µM
[4] = second compound 0.1 µM, first compound 0.1 µM
[5] = second compound 0.316 µM, first compound 0.0316 µM
[6] = second compound 0.316 µM, first compound 0.1 µM
[7] = second compound 1 µM, first compound 0.0316 µM
[8] = second compound 1 µM, first compound 0.1 µM
[9] = second compound 3.16 µM, first compound 0.0316 µM
[10] = second compound 3.16 µM, first compound 0.1 µM
[11] = second compound 10 µM, first compound 0.0316 µM
[12] = second compound 10 µM, first compound 0.1 µM
[13] = second compound 0.0316 µM, first compound 0.316 µM
[14] = second compound 0.0316 µM, first compound 1 µM
[15] = second compound 0.0316 µM, first compound 3.16 µM
[16] = second compound 0.0316 µM, first compound 10 µM
[17] = second compound 0.1 µM, first compound 0.316 µM
[18] = second compound 0.1 µM, first compound 1 µM
[19] = second compound 0.1 µM, first compound 3.16 µM
[20] = second compound 0.1 µM, first compound 10 µM
[21] = second compound 0.316 µM, first compound 0.316 µM
[22] = second compound 0.316 µM, first compound 1 µM
[23] = second compound 0.316 µM, first compound 3.16 µM
[24] = second compound 0.316 µM, first compound 10 µM
[25] = second compound 1 µM, first compound 0.316 µM
[26] = second compound 1 µM, first compound 1 µM
[27] = second compound 1 µM, first compound 3.16 µM
[28] = second compound 1 µM, first compound 10 µM
[29] = second compound 3.16 µM, first compound 0.316 µM
[30] = second compound 3.16 µM, first compound 1 µM
[31] = second compound 3.16 µM, first compound 3.16 µM
[32] = second compound 3.16 µM, first compound 10 µM
[33] = second compound 10 µM, first compound 0.316 µM
[34] = second compound 10 µM, first compound 1 µM
[35] = second compound 10 µM, first compound 3.16 µM
[36] = second compound 10 µM, first compound 10 µM
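Also: spheroids exposed to compounds for seven days before viability reading.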
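For viability, T/C in this document: 100% = DMSO vehicle control viability.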

CC(=O)c1c(C)c2cnc(Nc3ccc(N4CCNCC4)cn3)nc2n(C2CCCC2)c1=O + CC(Nc1ncnc2nc[nH]c12)c1cc2cccc(Cl)c2c(=O)n1-c1ccccc1
pIC50 (second compound 0.0316 µM): < 7.00 | pIC50 (second compound 0.1 µM): < 7.00 | pIC50 (second compound 0.316 µM): < 7.00 | pIC50 (second compound 1 µM): < 7.00 | pIC50 (second compound 3.16 µM): < 7.00 | pIC50 (second compound 10 µM): < 7.00 | viability, T/C (second compound 0.0316 µM, first compound 0.000316 µM): 87.2% | viability, T/C (second compound 0.0316 µM, first compound 0.001 µM): 96.8% | viability, T/C (second compound 0.0316 µM, first compound 0.00316 µM): 114% | viability, T/C (second compound 0.0316 µM, first compound 0.01 µM): 97.2% | viability, T/C [1]: 109% | viability, T/C [2]: 113% | viability, T/C (second compound 0.1 µM, first compound 0.000316 µM): 87.2% | viability, T/C (second compound 0.1 µM, first compound 0.001 µM): 91.5% | viability, T/C (second compound 0.1 µM, first compound 0.00316 µM): 99% | viability, T/C (second compound 0.1 µM, first compound 0.01 µM): 96% | viability, T/C [3]: 116% | viability, T/C [4]: 133% | viability, T/C (second compound 0.316 µM, first compound 0.000316 µM): 96.9% | viability, T/C (second compound 0.316 µM, first compound 0.001 µM): 97.2% | viability, T/C (second compound 0.316 µM, first compound 0.00316 µM): 97.7% | viability, T/C (second compound 0.316 µM, first compound 0.01 µM): 107% | viability, T/C [5]: 118% | viability, T/C [6]: 127% | viability, T/C (second compound 1 µM, first compound 0.000316 µM): 96.3% | viability, T/C (second compound 1 µM, first compound 0.001 µM): 96.8% | viability, T/C (second compound 1 µM, first compound 0.00316 µM): 107% | viability, T/C (second compound 1 µM, first compound 0.01 µM): 107% | viability, T/C [7]: 122% | viability, T/C [8]: 118% | viability, T/C (second compound 3.16 µM, first compound 0.000316 µM): 98.2% | viability, T/C (second compound 3.16 µM, first compound 0.001 µM): 104% | viability, T/C (second compound 3.16 µM, first compound 0.00316 µM): 89.1% | viability, T/C (second compound 3.16 µM, first compound 0.01 µM): 110% | viability, T/C [9]: 99.5% | viability, T/C [10]: 119% | viability, T/C (second compound 10 µM, first compound 0.000316 µM): 84% | viability, T/C (second compound 10 µM, first compound 0.001 µM): 93.1% | viability, T/C (second compound 10 µM, first compound 0.00316 µM): 89.7% | viability, T/C (second compound 10 µM, first compound 0.01 µM): 79.3% | viability, T/C [11]: 100% | viability, T/C [12]: 97.9%

CCCS(=O)(=O)Nc1ccc(F)c(C(=O)c2c[nH]c3ncc(-c4ccc(Cl)cc4)cc23)c1F + CC(Nc1ncnc2nc[nH]c12)c1cc2cccc(Cl)c2c(=O)n1-c1ccccc1
pIC50 (second compound 0.0316 µM): 5.24 | pIC50 (second compound 0.1 µM): 5.30 | pIC50 (second compound 0.316 µM): 5.30 | pIC50 (second compound 1 µM): 5.28 | pIC50 (second compound 3.16 µM): 5.28 | pIC50 (second compound 10 µM): 5.26 | viability, T/C [1]: 85.8% | viability, T/C [2]: 96.6% | viability, T/C [13]: 105% | viability, T/C [14]: 85.6% | viability, T/C [15]: 96.5% | viability, T/C [16]: 7.89% | viability, T/C [3]: 97.5% | viability, T/C [4]: 103% | viability, T/C [17]: 93.2% | viability, T/C [18]: 77.8% | viability, T/C [19]: 83.7% | viability, T/C [20]: 7.36% | viability, T/C [5]: 97.3% | viability, T/C [6]: 109% | viability, T/C [21]: 87% | viability, T/C [22]: 94.5% | viability, T/C [23]: 76.5% | viability, T/C [24]: 10.1% | viability, T/C [7]: 86.7% | viability, T/C [8]: 98.1% | viability, T/C [25]: 95.5% | viability, T/C [26]: 94% | viability, T/C [27]: 82.3% | viability, T/C [28]: 7.72% | viability, T/C [9]: 113% | viability, T/C [10]: 94.6% | viability, T/C [29]: 90.6% | viability, T/C [30]: 91% | viability, T/C [31]: 84.8% | viability, T/C [32]: 9.36% | viability, T/C [11]: 108% | viability, T/C [12]: 104% | viability, T/C [33]: 106% | viability, T/C [34]: 105% | viability, T/C [35]: 87.6% | viability, T/C [36]: 8.89%

CNC(=O)c1ccc(N2C(=S)N(c3ccc(C#N)c(C(F)(F)F)c3)C(=O)C2(C)C)cc1F + CC(Nc1ncnc2nc[nH]c12)c1cc2cccc(Cl)c2c(=O)n1-c1ccccc1
pIC50 (second compound 0.0316 µM): < 5.00 | pIC50 (second compound 0.1 µM): < 5.00 | pIC50 (second compound 0.316 µM): < 5.00 | pIC50 (second compound 1 µM): < 5.00 | pIC50 (second compound 3.16 µM): < 5.00 | pIC50 (second compound 10 µM): < 5.00 | viability, T/C [1]: 100% | viability, T/C [2]: 117% | viability, T/C [13]: 90.9% | viability, T/C [14]: 90.1% | viability, T/C [15]: 101% | viability, T/C [16]: 92% | viability, T/C [3]: 99.7% | viability, T/C [4]: 107% | viability, T/C [17]: 88.6% | viability, T/C [18]: 115% | viability, T/C [19]: 115% | viability, T/C [20]: 99.8% | viability, T/C [5]: 104% | viability, T/C [6]: 119% | viability, T/C [21]: 102% | viability, T/C [22]: 104% | viability, T/C [23]: 112% | viability, T/C [24]: 113% | viability, T/C [7]: 89.3% | viability, T/C [8]: 112% | viability, T/C [25]: 117% | viability, T/C [26]: 116% | viability, T/C [27]: 106% | viability, T/C [28]: 103% | viability, T/C [9]: 116% | viability, T/C [10]: 128% | viability, T/C [29]: 103% | viability, T/C [30]: 106% | viability, T/C [31]: 118% | viability, T/C [32]: 92.9% | viability, T/C [11]: 90.5% | viability, T/C [12]: 102% | viability, T/C [33]: 103% | viability, T/C [34]: 96.6% | viability, T/C [35]: 92.1% | viability, T/C [36]: 89.4%

Cn1cnc2c(F)c(Nc3ccc(Br)cc3Cl)c(C(=O)NOCCO)cc21 + CC(Nc1ncnc2nc[nH]c12)c1cc2cccc(Cl)c2c(=O)n1-c1ccccc1
pIC50 (second compound 0.0316 µM): 6.76 | pIC50 (second compound 0.1 µM): 6.79 | pIC50 (second compound 0.316 µM): 6.83 | pIC50 (second compound 1 µM): 6.94 | pIC50 (second compound 3.16 µM): 7.20 | pIC50 (second compound 10 µM): 7.64 | viability, T/C (second compound 0.0316 µM, first compound 0.00949 µM): 93% | viability, T/C (second compound 0.0316 µM, first compound 0.03 µM): 91.3% | viability, T/C (second compound 0.0316 µM, first compound 0.0949 µM): 58.8% | viability, T/C (second compound 0.0316 µM, first compound 0.3 µM): 38.9% | viability, T/C (second compound 0.0316 µM, first compound 0.949 µM): 23.3% | viability, T/C (second compound 0.0316 µM, first compound 3 µM): 10.3% | viability, T/C (second compound 0.1 µM, first compound 0.00949 µM): 115% | viability, T/C (second compound 0.1 µM, first compound 0.03 µM): 92.3% | viability, T/C (second compound 0.1 µM, first compound 0.0949 µM): 56.4% | viability, T/C (second compound 0.1 µM, first compound 0.3 µM): 40.1% | viability, T/C (second compound 0.1 µM, first compound 0.949 µM): 22.2% | viability, T/C (second compound 0.1 µM, first compound 3 µM): 12% | viability, T/C (second compound 0.316 µM, first compound 0.00949 µM): 91.1% | viability, T/C (second compound 0.316 µM, first compound 0.03 µM): 82.4% | viability, T/C (second compound 0.316 µM, first compound 0.0949 µM): 57.4% | viability, T/C (second compound 0.316 µM, first compound 0.3 µM): 37.5% | viability, T/C (second compound 0.316 µM, first compound 0.949 µM): 15.3% | viability, T/C (second compound 0.316 µM, first compound 3 µM): 12.5% | viability, T/C (second compound 1 µM, first compound 0.00949 µM): 112% | viability, T/C (second compound 1 µM, first compound 0.03 µM): 82.5% | viability, T/C (second compound 1 µM, first compound 0.0949 µM): 49.7% | viability, T/C (second compound 1 µM, first compound 0.3 µM): 35.1% | viability, T/C (second compound 1 µM, first compound 0.949 µM): 19.5% | viability, T/C (second compound 1 µM, first compound 3 µM): 9.14% | viability, T/C (second compound 3.16 µM, first compound 0.00949 µM): 104% | viability, T/C (second compound 3.16 µM, first compound 0.03 µM): 64.1% | viability, T/C (second compound 3.16 µM, first compound 0.0949 µM): 39.9% | viability, T/C (second compound 3.16 µM, first compound 0.3 µM): 28.5% | viability, T/C (second compound 3.16 µM, first compound 0.949 µM): 18.3% | viability, T/C (second compound 3.16 µM, first compound 3 µM): 7.22% | viability, T/C (second compound 10 µM, first compound 0.00949 µM): 75.7% | viability, T/C (second compound 10 µM, first compound 0.03 µM): 41.1% | viability, T/C (second compound 10 µM, first compound 0.0949 µM): 25.4% | viability, T/C (second compound 10 µM, first compound 0.3 µM): 14.1% | viability, T/C (second compound 10 µM, first compound 0.949 µM): 8.69% | viability, T/C (second compound 10 µM, first compound 3 µM): 5.17%
